molecular target: T1, Enkephalinase (Rattus norvegicus, UniProt P07861); experiment: Inhibition of enkephalinase (rat striatum membrane fraction, tritiated leucine-enkephaline); assay type: biochemical, rats; details: 20 nanomole tritiated leucine-enkephaline, 1 mM puromycin, 25° C., 15 minutes, pH 7.4, read-out: Enkaphalinase inhibition CI50 (50% inhibitory concentration)
T1 construct: from tissue; host or cells: rat striatum, membrane (particulate) fraction
T1 sequence (P07861 1-750): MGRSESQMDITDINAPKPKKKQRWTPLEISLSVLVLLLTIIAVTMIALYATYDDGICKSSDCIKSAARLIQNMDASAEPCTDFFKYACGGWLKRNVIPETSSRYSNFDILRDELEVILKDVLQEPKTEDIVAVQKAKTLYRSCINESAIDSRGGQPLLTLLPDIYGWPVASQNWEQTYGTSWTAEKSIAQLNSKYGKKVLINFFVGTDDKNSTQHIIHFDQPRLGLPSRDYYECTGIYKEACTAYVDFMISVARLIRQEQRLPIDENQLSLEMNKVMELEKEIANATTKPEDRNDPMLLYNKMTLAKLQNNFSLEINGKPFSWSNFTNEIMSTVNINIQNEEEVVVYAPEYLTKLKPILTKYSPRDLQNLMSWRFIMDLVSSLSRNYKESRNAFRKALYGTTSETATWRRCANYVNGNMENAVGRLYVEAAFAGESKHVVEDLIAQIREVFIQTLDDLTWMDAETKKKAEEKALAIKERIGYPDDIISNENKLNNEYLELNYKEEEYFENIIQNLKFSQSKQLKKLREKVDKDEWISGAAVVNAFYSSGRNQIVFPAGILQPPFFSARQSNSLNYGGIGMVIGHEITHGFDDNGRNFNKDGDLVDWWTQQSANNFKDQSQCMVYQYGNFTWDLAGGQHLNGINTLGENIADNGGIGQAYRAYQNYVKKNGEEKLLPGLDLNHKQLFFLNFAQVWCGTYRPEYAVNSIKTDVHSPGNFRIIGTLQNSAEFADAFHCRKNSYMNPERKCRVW
Protocol: Enkephalinase activity was determined in a striatum membrane fraction of rats. The striatum was placed in ice and was homogenized in buffered 0.05M Tris with a pH of 7.4 (20 times the volume) and after a first centrifugation at 1000 g, the particular fraction obtained was subjected to two centrifugations for 10 minutes at 20,000 g. The culot was then suspended in buffered Tris and kept at 4° C. The amount of proteins was determined by the Comassie blue method.
After preincubation at 25° C. for 15 minutes, an aliquot of proteins was incubated at 25° C. for 15 minutes in the presence of 20 nanomole of tritiated leucine-enkephaline (against the first amino acid) previously purified, of 1 mM of puromycin and the test product in buffered Tris. The hydrolysis reaction was stopped by addition of 0.2N hydrochloric acid and the incubate was subjected to a deproteinization by heating at 95° C. for 15 minutes. Under these conditions, the kinetic reaction was linear. The tritiated metabolites obtained by hydrolysis were separated from enkephaline by chromatography over a column of porapak Q and elution with buffered Tris whereby enkephaline was retained in the column and was released in the following ethanolic phase. The activity of the different products was expressed in 50% inhibitory concentration called CI50 in Table II.

Going from `CC(=O)SCC(Cc1ccccc1)C(=O)Nc1ccccc1` (stereo not drawn) [Example 1, Ethanethioate of S-[3-oxo-3-phenylamino-2-benzyl-propyl]] to `O=C(Nc1ccccc1)C(CS)Cc1ccccc1` (stereo not drawn) [Example 2, α-mercaptomethyl-N-phenyl-benzene propanamide], the IC50 falls from 10000 nM to 1000 nM (10-fold). The second is the more potent here.

`CC(=O)SCC(Cc1ccccc1)C(=O)Nc1ccc(Cl)cc1` (stereo not drawn) [Example 3, Ethanethioate of S-[3-(4-chlorophenylamino)-3-oxo-2-benzylpropyl]] and `O=C(Nc1ccc(Cl)cc1)C(CS)Cc1ccccc1` (stereo not drawn) [Example 4, N-(4-chlorophenyl)-α-mercaptomethyl-benzene-propanamide] are the same in IC50: 1000 nM for the first, 1000 nM for the second.

Compared with `O=C(Nc1ccncc1)C(CS)Cc1ccccc1` (stereo not drawn) [Example 30, N-(4-pyridinyl) α-(mercaptomethyl)-benzene-propanamide], `COc1ccc(NC(=O)C(CS)Cc2ccccc2)cc1` (stereo not drawn) [Example 36, N-(4-methoxyphenyl) α-(mercaptomethyl)-benzene-propanamide] is 2-fold lower in IC50: 100 nM for the first, 50 nM for the second.

`COc1cccc(NC(=O)C(CS)Cc2ccccc2)c1` (stereo not drawn) [Example 38, N-(3-methoxyphenyl) α-(mercaptomethyl)-benzene-propanamide] gave an IC50 of 60 nM.
